Data taken from patent US20050215607A1, “Drug composition for prevention or inhibition of advance of diabetic complication” (priority 2002, published 2005).
Where a name gives a salt, the structure may show the parent alone.

Key:
healthy male adults = assay: Clinical study on administration timing; format: in vivo, human
Experimental: Administration timing before taking a meal was evaluated in healthy male adults. Used test drugs were a tablet comprising 10 mg of mitiglinide calcium salt hydrate and a placebo tablet. The tablet comprising 10 mg of mitiglinide calcium salt hydrate was administered at 0.5 min, 5 min, 10 min or 30 min before starting meal (Positive group), while the placebo tablet was administered at 0.5 min before starting meal. After administration, blood glucose levels were measured at starting meal and evaluated.

[1] = tested on: type II diabetic patients; assay: Clinical study in type II diabetic patients; format: in vivo, human; conditions: for Change in HbA1C value, mean value: three times a day just before meals; for Change in 1 hour value of postprandial plasma glucose (PPG), mean value / Change in 2 hour value of postprandial plasma glucose (PPG), mean value / Change in early morning fasting plasma glucose (FPG), mean: at the final evaluation
Experimental: Using the pharmaceutical composition described in Example 1, a clinical study was conducted in type II diabetic patients under the following conditions.
Test drug and Mode of administration: Every patient orally administered either of a combination selected from the following combination groups (one tablet from each) three times a day just before meals (within 5 minutes before starting meal): • The present invention group: (1)+(4) • Positive control group: (2)+(3) • Positive control group: (3)+(4) • (1) a tablet comprising 10 mg of mitiglinide calcium salt hydrate; • (2) a tablet comprising 0.2 mg of voglibose (chemical name: (+)-1L-[1(OH),2,4,5/3]-5-[2-hydroxy-1-(hydroxymethyl)-ethyl]amino-1-C-(hydroxymethyl)-1,2,3,4-cyclohexaneterol); • (3) a placebo tablet of mitiglinide calcium salt hydrate not containing any active ingredient; and • (4) a placebo tablet of voglibose not containing any active ingredient. • Treatment period: 12 weeks
Observation item: The following items were measured before administration, at a certain fixed time after the start of administration and at the completion of administration, and their changes were calculated, or the frequency of adverse drug reactions was calculated, and then evaluated.

[2] = Required single dose to reduce HbA1C value; format: in vivo; conditions: as a single dose
[3] = Disposition (half-life) of mitiglinide; conditions: human, in vivo, oral; single dose of 5 mg and more
[4] = in comparison with voglibose and placebo

O=C(O)[C@H](CC(=O)N1C[C@H]2CCCC[C@H]2C1)Cc1ccccc1 [Mitiglinide calcium salt hydrate, (+)-monocalcium bis[(2S, 3a, 7a-cis)-α-benzylhexahydro-γ-oxo-2-isoindolinebutyrate] dihydrate]
Blood glucose level at starting meal, mean (healthy male adults; 10 mg tablet administered 0.5 min before starting meal): 87.0 mg/dL
Blood glucose level at starting meal, mean (healthy male adults; 10 mg tablet administered 5 min before starting meal): 83.8 mg/dL
Blood glucose level at starting meal, mean (healthy male adults; 10 mg tablet administered 10 min before starting meal): 84.2 mg/dL
Blood glucose level at starting meal, mean (healthy male adults; 10 mg tablet administered 30 min before starting meal): 55.7 mg/dL
blood glucose level at starting meal (result in words) (healthy male adults; administered at 30 minutes before starting meal): notably declined
blood glucose level at starting meal (result in words) (healthy male adults; administered within 10 minutes before starting meal): able to maintain good blood glucose level
Change in HbA1C value, mean value ([1]; 4 weeks): −0.30%
Change in HbA1C value, mean value ([1]; 8 weeks): −0.46%
Change in HbA1C value, mean value ([1]; 12 weeks): −0.46%
HbA1C value (result in words) ([1]; after 4 weeks after the start of administration, in comparison with voglibose and placebo): significantly lowered
Change in 1 hour value of postprandial plasma glucose (PPG), mean value ([1]; treatment period 12 weeks): -53.1 mg/dL
Change in 2 hour value of postprandial plasma glucose (PPG), mean value ([1]; treatment period 12 weeks): -50.1 mg/dL
Change in early morning fasting plasma glucose (FPG), mean ([1]; treatment period 12 weeks): -8.0 mg/dL
frequencies of hypoglycemic symptoms and gastrointestinal disorders (result in words) ([1]; human, in vivo): decreased
Frequency of adverse drug reactions: gastrointestinal disorder ([1]; human, in vivo, 12 weeks): 17.6%
Frequency of adverse drug reactions: hypoglycemic symptoms ([1]; human, in vivo, 12 weeks): 2.0%
1 hour and 2 hour values of postprandial plasma glucose (PPG) (result in words) [1, 4]: significantly lowered
early morning fasting plasma glucose (FPG) (result in words) [1, 4]: significantly lowered
Change in HbA1C value, mean value ([1]; the final evaluation): −0.44%

O=C(O)[C@H](CC(=O)N1C[C@H]2CCCC[C@H]2C1)Cc1ccccc1 [mitiglinide]
required dosage to reduce HbA1C value significantly [2]: ≥ 5 mg
half-life [3]: ~1.5 h

OCC(CO)N[C@H]1C[C@](O)(CO)[C@@H](O)[C@H](O)[C@H]1O [voglibose, (+)-1L-[1(OH),2,4,5/3]-5-[2-hydroxy-1-(hydroxymethyl)-ethyl]amino-1-C-(hydroxymethyl)-1,2,3,4-cyclohexaneterol, reference compound]
Change in HbA1C value, mean value ([1]; 4 weeks): −0.14%
Change in HbA1C value, mean value ([1]; 8 weeks): −0.14%
Change in HbA1C value, mean value ([1]; 12 weeks): −0.11%
Change in 1 hour value of postprandial plasma glucose (PPG), mean value ([1]; treatment period 12 weeks): -24.8 mg/dL
Change in 2 hour value of postprandial plasma glucose (PPG), mean value ([1]; treatment period 12 weeks): -5.1 mg/dL
Change in early morning fasting plasma glucose (FPG), mean ([1]; treatment period 12 weeks): 0.5 mg/dL
HbA1C value (result in words) ([1]; in comparison with placebo): significantly lowered
Change in HbA1C value, mean value ([1]; the final evaluation): −0.11%
Frequency of adverse drug reactions: gastrointestinal disorder ([1]; treatment period 12 weeks): 24.5%
Frequency of adverse drug reactions: hypoglycemic symptoms ([1]; treatment period 12 weeks): 4.5%
